In one series the test system is Plasma. Put plainly: (§1) Stability in human plasma assessed as compound remaining at 5 uM after 1 hr by LC/MS/MS method. The format is ADME, cell-free. As to conditions: 1 h, 5 µM.
The nature of series [1]: Metabolic stability in human liver microsomes assessed as compound remaining at 200 uM measured after 1 hr by LC/MS/MS method. As to conditions: read-out: Stability. It is filed as ADME. In general terms: Liver microsomes are vesicles of endoplasmic reticulum, rich in cytochrome P450 enzymes.
The test system of another series is MV4-11. Put plainly: […] histone methylation in human MV4-11 cells assessed as H3K79 methylation after 4 days by Western blot analysis. The format is functional, cell-based. As to conditions: MV4-11, 96 h.
The nature of series [2]: as §1. It is filed as ADME, cell-free. As to conditions: read-out: Stability.

`CC(C)N(CCCNC(=O)Nc1ccc(C(C)(C)C)cc1)C[C@H]1C[C@@H](n2cnc3c(N)ncnc32)[C@H](O)[C@@H]1O`: in the series with Plasma, the Stability entry is reported as “Stable”.
Usually IC50 stands for the midpoint of a concentration-inhibition curve. Consider `CC(C)N(CCCNC(=O)Nc1ccc(C(C)(C)C)cc1)CC1=C[C@@H](n2cnc3c(N)ncnc32)[C@H](O)[C@@H]1O`, for which the remaining at 1 h, 200 µM in series [1] stood at 50%. Also, in the series with Plasma, the Stability entry is on record as “Stable”. In addition, the IC50 in the series on MV4-11 is 0.2 µM.
In the case of `CC(C)N(CCCNC(=O)Nc1ccc(C(C)(C)C)cc1)C[C@H]1O[C@@H](n2cnc3c(N)ncnc32)[C@H](O)[C@@H]1O`, in series [1], the remaining at 1 h, 200 µM is 50%. In series [2], the remaining at 1 h, 5 µM worked out at 90%.

The values above are taken from ChEMBL document CHEMBL3132754 (Medchemcomm, 2013).
